Results reported in the NIST ThermoML archive (doi:10.1016/j.jct.2018.11.020).
Numbers after ± are expanded uncertainties.

Assays:
[1] = 101.33 kPa, Liquid; for viscosity: Concentric cylinders viscometry; for mass density: Vibrating tube method
[2] = refractive index (Na D-line) (dimensionless); conditions: 101.33 kPa, Liquid, Standard Abbe refractometry

| SMILES | viscosity ([1]; 288.15 K) | mass density ([1]; 288.15 K) | viscosity ([1]; 293.15 K) | mass density ([1]; 293.15 K) | viscosity ([1]; 298.15 K) | mass density ([1]; 298.15 K) | viscosity ([1]; 303.15 K) | mass density ([1]; 303.15 K) | viscosity ([1]; 308.15 K) | mass density ([1]; 308.15 K) | viscosity ([1]; 313.15 K) | mass density ([1]; 313.15 K) | viscosity ([1]; 318.15 K) | mass density ([1]; 318.15 K) | viscosity ([1]; 323.15 K) | mass density ([1]; 323.15 K) | viscosity ([1]; 328.15 K) | mass density ([1]; 328.15 K) | viscosity ([1]; 333.15 K) | mass density ([1]; 333.15 K) | other results |
| --- | --- | --- | --- | --- | --- | --- | --- | --- | --- | --- | --- | --- | --- | --- | --- | --- | --- | --- | --- | --- | --- |
| Cc1ccccc1C [1,2-dimethylbenzene] | 0.869 ± 0.019 mPa·s | 883.91 ± 1 kg/m3 | 0.8175 ± 0.018 mPa·s | 879.72 ± 1 kg/m3 | 0.7661 ± 0.017 mPa·s | 875.51 ± 1 kg/m3 | 0.722 ± 0.016 mPa·s | 871.3 ± 1 kg/m3 | 0.6809 ± 0.015 mPa·s | 867.07 ± 1 kg/m3 | 0.6437 ± 0.014 mPa·s | 862.83 ± 1 kg/m3 | 0.608 ± 0.014 mPa·s | 858.57 ± 1 kg/m3 | 0.5757 ± 0.013 mPa·s | 854.3 ± 1 kg/m3 | 0.5458 ± 0.012 mPa·s | 850.01 ± 1 kg/m3 | 0.5221 ± 0.012 mPa·s | 845.71 ± 1 kg/m3 | refractive index ([2]; 288.15 K): 1.50706 ± 0.0004; refractive index ([2]; 293.15 K): 1.5044 ± 0.0004; refractive index ([2]; 298.15 K): 1.50173 ± 0.0004; refractive index ([2]; 303.15 K): 1.49906 ± 0.0004; refractive index ([2]; 308.15 K): 1.49644 ± 0.0004; refractive index ([2]; 313.15 K): 1.49383 ± 0.0004; refractive index ([2]; 318.15 K): 1.49124 ± 0.0004; refractive index ([2]; 323.15 K): 1.48869 ± 0.0004; refractive index ([2]; 328.15 K): 1.48604 ± 0.0004; refractive index ([2]; 333.15 K): 1.48345 ± 0.0004 |
| Cc1cccc(C)c1 [1,3-dimethylbenzene] | 0.6601 ± 0.015 mPa·s | 868.56 ± 1 kg/m3 | 0.6322 ± 0.014 mPa·s | 864.27 ± 1 kg/m3 | 0.5969 ± 0.013 mPa·s | 859.98 ± 1 kg/m3 | 0.5674 ± 0.013 mPa·s | 855.68 ± 1 kg/m3 | 0.5396 ± 0.012 mPa·s | 851.36 ± 1 kg/m3 | 0.5112 ± 0.012 mPa·s | 847.03 ± 1 kg/m3 | 0.4888 ± 0.011 mPa·s | 842.69 ± 1 kg/m3 | 0.4657 ± 0.011 mPa·s | 838.33 ± 1 kg/m3 | 0.4439 ± 0.01 mPa·s | 833.95 ± 1 kg/m3 | 0.4273 ± 0.01 mPa·s | 829.56 ± 1 kg/m3 | refractive index ([2]; 288.15 K): 1.49868 ± 0.0004; refractive index ([2]; 293.15 K): 1.49604 ± 0.0004; refractive index ([2]; 298.15 K): 1.49339 ± 0.0004; refractive index ([2]; 303.15 K): 1.49074 ± 0.0004; refractive index ([2]; 308.15 K): 1.4881 ± 0.0004; refractive index ([2]; 313.15 K): 1.48545 ± 0.0004; refractive index ([2]; 318.15 K): 1.4828 ± 0.0004; refractive index ([2]; 323.15 K): 1.48017 ± 0.0004; refractive index ([2]; 328.15 K): 1.47757 ± 0.0004; refractive index ([2]; 333.15 K): 1.47489 ± 0.0004 |
| Cc1ccc(C)cc1 [1,4-dimethylbenzene] | 0.6862 ± 0.015 mPa·s | 865.31 ± 1 kg/m3 | 0.6515 ± 0.015 mPa·s | 860.97 ± 1 kg/m3 | 0.6168 ± 0.014 mPa·s | 856.63 ± 1 kg/m3 | 0.5848 ± 0.013 mPa·s | 852.27 ± 1 kg/m3 | 0.5548 ± 0.013 mPa·s | 847.91 ± 1 kg/m3 | 0.5247 ± 0.012 mPa·s | 843.53 ± 1 kg/m3 | 0.5001 ± 0.011 mPa·s | 839.14 ± 1 kg/m3 | 0.4753 ± 0.011 mPa·s | 834.74 ± 1 kg/m3 | 0.4521 ± 0.01 mPa·s | 830.32 ± 1 kg/m3 | 0.4342 ± 0.01 mPa·s | 825.88 ± 1 kg/m3 | refractive index ([2]; 288.15 K): 1.4977 ± 0.0004; refractive index ([2]; 293.15 K): 1.49493 ± 0.0004; refractive index ([2]; 298.15 K): 1.49221 ± 0.0004; refractive index ([2]; 303.15 K): 1.48939 ± 0.0004; refractive index ([2]; 308.15 K): 1.48658 ± 0.0004; refractive index ([2]; 313.15 K): 1.48391 ± 0.0004; refractive index ([2]; 318.15 K): 1.48126 ± 0.0004; refractive index ([2]; 323.15 K): 1.47853 ± 0.0004; refractive index ([2]; 328.15 K): 1.47608 ± 0.0004; refractive index ([2]; 333.15 K): 1.47328 ± 0.0004 |
| Cc1ccccc1 [toluene] | 0.6284 ± 0.014 mPa·s | 871.5 ± 1 kg/m3 | 0.5926 ± 0.013 mPa·s | 866.84 ± 1 kg/m3 | 0.5698 ± 0.013 mPa·s | 862.18 ± 1 kg/m3 | 0.541 ± 0.012 mPa·s | 857.51 ± 1 kg/m3 | 0.514 ± 0.011 mPa·s | 852.83 ± 1 kg/m3 | 0.4854 ± 0.011 mPa·s | 848.15 ± 1 kg/m3 | 0.4646 ± 0.01 mPa·s | 843.44 ± 1 kg/m3 | 0.4421 ± 0.01 mPa·s | 838.73 ± 1 kg/m3 | 0.4209 ± 0.0097 mPa·s | 834 ± 1 kg/m3 | 0.4035 ± 0.0094 mPa·s | 829.25 ± 1 kg/m3 | refractive index ([2]; 288.15 K): 1.49921 ± 0.00036; refractive index ([2]; 293.15 K): 1.49631 ± 0.00036; refractive index ([2]; 298.15 K): 1.49338 ± 0.00036; refractive index ([2]; 303.15 K): 1.49042 ± 0.00036; refractive index ([2]; 308.15 K): 1.48751 ± 0.00036; refractive index ([2]; 313.15 K): 1.48461 ± 0.00036; refractive index ([2]; 318.15 K): 1.48171 ± 0.00036; refractive index ([2]; 323.15 K): 1.47889 ± 0.00036; refractive index ([2]; 328.15 K): 1.47596 ± 0.00036; refractive index ([2]; 333.15 K): 1.47305 ± 0.00036 |
